This passage reports IC50 results from patent publication US11040028B2, “Penicinotam derivative, preparation method and use thereof” (OCEAN UNIVERSITY OF CHINA, priority 2017, dated 2021).

Common to all, as to format: cell-based
For assay [1], the system named is human lung fibroblasts HFL1. Description: Anti-fibrosis activity test: inhibition of proliferation of human lung fibroblasts HFL1 (CCK-8). As to conditions: Homo sapiens, HFL1, 48 h, HFL1 cells, 48 h, CCK-8. The procedure, abridged: (§1)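 Exponentially growing cells, 2×10^4 cells/mL, attached 24 h. Dosed 48 h across concentrations (n=3). CCK-8 2 h → A450; IR vs blank; IC50.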

The subject of assay [2] is human embryonic lung fibroblast IMR-90. Description: Anti-fibrosis activity test: inhibition of proliferation of human embryonic lung fibroblast IMR-90 (CCK-8). As to conditions: Homo sapiens; IMR-90 cells, 48 h, CCK-8. The procedure, abridged:
as §1

In assay [3] the test system is human dermal fibroblasts CCC-ESF-1. The assay can be described thus: Anti-fibrosis activity test: inhibition of proliferation of human dermal fibroblasts CCC-ESF-1 (CCK-8). The note with it: Homo sapiens, Fibroblast; CCC-ESF-1 cells, 48 h, CCK-8. Summed up: as §1
In assay [4] the test system is cardiac fibroblast RAT-iCell-C002. Description: Anti-fibrosis activity test: inhibition of proliferation of cardiac fibroblast RAT-iCell-C002 (CCK-8). As to conditions: Cardiac fibroblast, 48 h, RAT-iCell-C002 cells, CCK-8. Summed up:
as §1

In assay [5] the test system is BHK-21 cells. The assay can be described thus: Anti-fibrosis activity test: inhibition of BHK-21 cell proliferation (CCK-8). As to conditions: Mesocricetus auratus, BHK-21, 48 h, 48 h, CCK-8. The procedure, abridged: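 Each concentration was tested in triplicate on adhered BHK-21 cells for 48 h, with pirfenidone as reference. A 2 h CCK-8 incubation preceded absorbance reading at 450 nm, and IC50 was obtained from percent inhibition versus blank.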

Assay [6] deals with human fibrosarcoma cells HT-1080. Description: Anti-fibrosis activity test: inhibition of proliferation of human fibrosarcoma cells HT-1080 (CCK-8). As to conditions: Homo sapiens, HT-1080, 48 h, HT-1080 cells, 48 h, CCK-8. The procedure, abridged: as §1
Assay [7] deals with mouse macrophages (RAW264.7). Description: Lipopolysaccharide-induced NO secretion in macrophages (Griess). As to conditions: Mus musculus, RAW264.7, 24 h, RAW264.7, LPS 1 μg/ml, a/b isomers given as first/second symbol, read-out: IC50 (μM), inhibition of lipopolysaccharide-induced NO secretion in macrophages. Summed up: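 RAW264.7 cells in DMEM with 10% FBS were treated with test compounds at several concentrations, then stimulated with LPS (1 μg/ml) for 24 hours. Nitrite in the supernatant was measured by Griess reaction at 548 nm, and percent inhibition was calculated against blank-medium controls.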
On the technique in general: Griess reagent forms a coloured azo dye with nitrite.

Assay [8] relates to human hepatic stellate cells LX-2. Description: Anti-fibrosis activity test: inhibition of proliferation of human hepatic stellate cells LX-2 (CCK-8). The note with it: Homo sapiens, LX-2, 48 h, LX-2 cells, 48 h, CCK-8. Summed up:
as §1

The subject of assay [9] is NF-κB. Description: Immunological activity test: inhibition of NF-κB activity. The note with it: initial concentration of 30 μM; a/b isomers given as first/second symbol; read-out: IC50 (μM), inhibitory activity against NF-κB. The procedure, abridged: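 NF-κB inhibition was tested at an initial 30 μM compound concentration, with parthenolide as positive control, and IC50 values were determined from follow-up analysis.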

By IC50 is commonly meant the midpoint of a concentration-inhibition curve. Regarding `Cc1cccc2c(O)c3c(nc12)-c1cccn1C3=O` [Compound 732b, 9-hydroxy-5-methyl-10H-pyrrolizino[1,2-b]quinolin-10-one], the IC50 in assay [1], in [2], in assay [3], in assay [4], in assay [5] and in [6] was 0.05 to 5 mM in each case. The figures for the IC50 in assay [7], in [8] and in assay [9] were 1 to 10 µM, 0.05 to 5 mM and 1 to 10 µM, respectively.

For the molecule `Cc1cc(C)c2[nH]c3c(c(=O)c2c1)C(=O)n1cccc1-3` [Compound 750a, 5,7-Dimethyl-9H-pyrrolizino[1,2-b]quinoline-9,10(4H)-dione], the IC50 in [1], in assay [2], in [3], in assay [4], in assay [5] and in assay [6] was 0.05 to 5 mM in each case. For the same molecule, the IC50 is 1 to 10 µM in assay [7], 0.05 to 5 mM in [8] and 1 to 10 µM in [9].

Take `Cc1cc(C)c2nc3c(c(O)c2c1)C(=O)n1cccc1-3` [Compound 750b, 9-hydroxy-5,7-dimethyl-10H-pyrrolizino[1,2-b]quinolin-10-one]: the IC50 in [1], in assay [2], in [3], in [4], in assay [5] and in assay [6] was 0.05 to 5 mM in each case. For the same molecule, the results for the IC50 in assay [7], in assay [8] and in [9] were 1 to 10 µM, 0.05 to 5 mM and 1 to 10 µM, respectively.

On to `Cc1cc2[nH]c3c(c(=O)c2cc1C)C(=O)n1cccc1-3` [Compound 756a, 6,7-Dimethyl-9H-pyrrolizino[1,2-b]quinoline-9,10(4H)-dione], for which the IC50 in assay [1], in assay [2], in assay [3], in assay [4], in assay [5] and in assay [6] was 0.05 to 5 mM each time. Further, the results for the IC50 in assay [7], in [8] and in [9] were 0.1 to 1 µM, 0.05 to 5 mM and 1 to 10 µM, respectively.

For the molecule `Cc1cc2nc3c(c(O)c2cc1C)C(=O)n1cccc1-3` [Compound 756b, 9-hydroxy-6,7-dimethyl-10H-pyrrolizino[1,2-b]quinolin-10-one], the IC50 in assay [1], in assay [2], in assay [3], in assay [4], in assay [5] and in assay [6] was 0.05 to 5 mM in each case. For the same molecule, the IC50 was in the range of 10 to 50 µM in assay [7], 0.05 to 5 mM in assay [8] and 1 to 10 µM in assay [9].

On to `Cc1cc(C)c2c(=O)c3c([nH]c2c1)-c1cccn1C3=O` [Compound 768a, 6,8-Dimethyl-9H-pyrrolizino[1,2-b]quinoline-9,10(4H)-dione], for which the IC50 in assay [1], in assay [2], in assay [3], in assay [4], in assay [5] and in [6] was 0.05 to 5 mM throughout. Besides, the figures for the IC50 in [7], in assay [8] and in assay [9] were 1 to 10 µM, 0.05 to 5 mM and 0.1 to 1 µM, respectively.

For the molecule `Cc1cc(C)c2c(O)c3c(nc2c1)-c1cccn1C3=O` [Compound 768b, 9-hydroxy-6,8-dimethyl-10H-pyrrolizino[1,2-b]quinolin-10-one], the IC50 in [1], in assay [2], in assay [3], in assay [4], in [5] and in assay [6] was 0.05 to 5 mM throughout. In addition, the IC50 in assay [7] was in the range of 1 to 10 µM; in [8], 0.05 to 5 mM; in [9], 1 to 10 µM.

Consider `Cc1ccc(C)c2c(=O)c3c([nH]c12)-c1cccn1C3=O` [Compound 772a, 5,8-Dimethyl-9H-pyrrolizino[1,2-b]quinoline-9,10(4H)-dione], for which the IC50 in [1] is 0.05 to 5 mM; in [2], 0.05 to 5 mM; in [3], 0.05 to 5 mM; in assay [4] it was 0.05 to 5 mM; in assay [5] it was less than 0.05 mM; in assay [6], 0.05 to 5 mM. In addition, the IC50 in [7] lay in the range of 1 to 10 µM; in assay [8], 0.05 to 5 mM; in assay [9], 1 to 10 µM.

Consider `Cc1ccc(C)c2c(O)c3c(nc12)-c1cccn1C3=O` [Compound 772b, 9-hydroxy-5,8-dimethyl-10H-pyrrolizino[1,2-b]quinolin-10-one], for which the IC50 in assay [1], in [2], in assay [3], in [4], in assay [5] and in assay [6] was 0.05 to 5 mM each time. Moreover, the IC50 in [7] lay within 1 to 10 µM; in assay [8] it was 0.05 to 5 mM; in assay [9], 0.1 to 1 µM.

`Cc1cccc2[nH]c3c(c(=O)c12)-c1cccn1C3=O` [Compound 776a, 10-Methyl-5H-pyrrolizino[2,1-b]quinoline-5,11(6H)-dione]: the IC50 in assay [1] was 0.05 to 5 mM; in [2], 0.05 to 5 mM; in [3], 0.05 to 5 mM; in assay [4] it was 0.05 to 5 mM; in assay [5], less than 0.05 mM; in assay [6], 0.05 to 5 mM. For the same molecule, the figures for the half-inhibitory concentration (IC50) in [7], in assay [8] and in [9] were 10 to 50 µM, 0.05 to 5 mM and 1 to 10 µM, respectively.

Take `Cc1cccc2nc3c(c(O)c12)-c1cccn1C3=O` [Compound 776b, 11-hydroxy-10-methyl-5H-pyrrolizino[2,1-b]quinolin-5-one]: the IC50 in assay [1], in assay [2], in [3], in assay [4], in assay [5] and in assay [6] was 0.05 to 5 mM each time. In addition, the values for the IC50 in assay [7], in assay [8] and in [9] were 1 to 10 µM, 0.05 to 5 mM and 0.1 to 1 µM, respectively.

Take `O=C1c2c(c(=O)c3ccccc3n2CCCN2CCOCC2)-c2cccn21` [Compound 787a, 6-(3-Morpholinopropyl)-5H-pyrrolizino[2,1-b]quinoline-5,11(6H)-dione]: the IC50 in [1], in assay [2], in [3], in [4], in [5] and in assay [6] was 0.05 to 5 mM throughout. The IC50 in assay [7] lay in the range of 10 to 50 µM; in assay [8] it was 0.05 to 5 mM; in [9], 1 to 10 µM.

For `O=C1c2nc3ccccc3c(OCCCN3CCOCC3)c2-c2cccn21` [Compound 787b, 11-(3-morpholinopropoxy)-5H-pyrrolizino[2,1-b]quinolin-5-one], the IC50 in assay [1], in [2], in assay [3], in assay [4], in assay [5] and in [6] was 0.05 to 5 mM in each case. For the same molecule, the IC50 in assay [7] lay within 10 to 50 µM; in [8], 0.05 to 5 mM; in assay [9], 0.1 to 1 µM.

Consider `Cc1ccn2c1-c1c([nH]c3ccccc3c1=O)C2=O` [Compound 797a, 1-Methyl-5H-pyrrolizino[2,1-b]quinoline-5,11(6H)-dione], for which the IC50 in assay [1], in assay [2], in assay [3], in [4], in [5] and in assay [6] was 0.05 to 5 mM each time. Besides, the half-maximal inhibitory concentration (IC50) was in the range of 1 to 10 µM in assay [7], 0.05 to 5 mM in assay [8] and 1 to 10 µM in [9].

In the case of `Cc1ccn2c1-c1c(nc3ccccc3c1O)C2=O` [Compound 797b, 11-hydroxy-1-methyl-5H-pyrrolizino[2,1-b]quinolin-5-one], the IC50 in assay [1], in assay [2], in assay [3], in assay [4], in assay [5] and in assay [6] was 0.05 to 5 mM in each case. The IC50 in [7] was in the range of 1 to 10 µM; in assay [8], 0.05 to 5 mM; in assay [9], 0.1 to 1 µM.

For `Cc1cc2n(c1)C(=O)c1[nH]c3ccccc3c(=O)c1-2` [Compound 798a, 2-Methyl-5H-pyrrolizino[2,1-b]quinoline-5,11(6H)-dione], the IC50 in assay [1] is 0.05 to 5 mM; in assay [2], 0.05 to 5 mM; in assay [3], 0.05 to 5 mM; in [4], 0.05 to 5 mM; in assay [5] it was less than 0.05 mM; in assay [6], 0.05 to 5 mM. Besides, the IC50 was in the range of 1 to 10 µM in assay [7], 0.05 to 5 mM in assay [8] and 1 to 10 µM in assay [9].
